Assay results: PMC5068747, “Using C. elegans Forward and Reverse Genetics to Identify New Compounds with Anthelmintic Activity” (PLoS Neglected Tropical Diseases, 2016)
Entries after “also recorded” stand apart in the source; their conditions may differ.

Test system: C. elegans VC2010
Test: Manual phenotyping pilot screen of 3,584 known compounds (CCBN library)
Format: in vivo, Caenorhabditis elegans
Details: dissecting microscope, positively confirmed drugs of CCBN library

Row | Compound | Worm Reaction in Drug
1 | CC(=O)O[C@@]12C[C@@H](C)[C@@]3(O)[C@@H](C=C(CO)C[C@]4(O)C(=O)C(C)=C[C@@H]34)[C@@H]1C2(C)C [12-Deoxyphorbol 13-acetate] | SLOW only L1/2s (& orig adults), lots unhatched eggs
2 | CC(=O)OCC1=C[C@H]2[C@@H]3C(C)(C)[C@]3(OC(=O)Cc3ccccc3)C[C@@H](C)[C@]2(O)[C@@H]2C=C(C)C(=O)[C@@]2(O)C1 [12-Deoxyphorbol 13-phenylacetate 20-acetate] | Adults DEAD, only L1s/2s, not starved
3 | Cl.c1ccc([C@H]2CN3CCSC3=N2)cc1 [(-)-Tetramisole hydrochloride] | UNC! Paralyzed, lots of worms, 1 starved, 1 not
4 | CNC(=O)O/N=C/C(C)(C)SC [Aldicarb] | UNC adults, but definitely STARVED
5 | COc1cccc2c1cc([N+](=O)[O-])c1c(C(=O)O)cc3c(c12)OCO3 [Aristolochic acid A] | SLOW, 1:only L2s, not starved, 2:1 sterile adult?
6 | CC[C@@]1(O)C(=O)OCc2c1cc1n(c2=O)Cc2cc3ccccc3nc2-1 [Camptothecin] | SLOW - progeny paralyzed, only adults moving, not starved; also recorded: SLOW 1 well only 3 worms (dead ones, unhatched eggs present), other starved, lots of babies, 2nd gen
7 | CC[C@@]1(O)C(=O)OCc2c1cc1n(c2=O)Cc2cc3ccccc3nc2-1 [Camptothecine (S, +)] | unc-ish, few progeny, sickly gonads not developed properly ie. Adults but not eggs, etc.
8 | CCOP(=S)(OCC)Oc1nc(Cl)c(Cl)cc1Cl [Chlorpyrifos] | both DEAD!
9 | Cl.Clc1ccc(Cn2c(CN3CCCC3)nc3ccccc32)cc1 [Clemizole Hydrochloride] | mostly young ones, a few adults but look sterile, a little unc
10 | COc1cc2c(cc1OC)[C@@H]1C(=O)c3ccc4c(c3O[C@@H]1CO2)C=CC(C)(C)O4 [Deguelin] | SLOW, VERY few progeny, not starved, not very mobile
11 | COc1cc2c(cc1OC)[C@@H]1C(=O)c3ccc4c(c3O[C@@H]1CO2)CC(C(C)C)O4 (stereo partly drawn) [Dihydrorotenone] | SLOW uncish only 1 gen ns
12 | COC(=O)Nc1nc2ccc(Sc3ccccc3)cc2[nH]1 [Fenbendazole] | UNC (lots of worms)
13 | CN(C)c1ccc(C(=C2C=CC(=[N+](C)C)C=C2)c2ccc(N(C)C)cc2)cc1 [Gentian Violet] | SLOW! Ns, uncish, only 1 gen past
14 | CCCCCC(=O)O[C@]1(C(C)=O)CC[C@H]2[C@@H]3CCC4=CC(=O)CC[C@]4(C)[C@H]3CC[C@@]21C [Hydroxyprogesterone Caproate] | slower, one starved one not
15 | COC(=O)Nc1nc2ccc(SC(C)C)cc2[nH]1 [Methiazole] | UNC! Lots of worms
16 | COP(=S)(OC)Oc1ccc([N+](=O)[O-])cc1 [Methyl Parathione] | SLOW, UNC, ns, 1 gen only
17 | C=C(C)[C@@]12O[C@@]3(c4ccccc4)O[C@@H]1[C@@H]1[C@@H]4O[C@]4(CO)[C@@H](O)[C@]4(O)C(=O)C(C)=C[C@H]4[C@@]1(O3)[C@H](C)[C@H]2OC(=O)/C=C/C=C/c1ccccc1 [Mezerein] | Adults DEAD, only L1s/2s, not starved
18 | CCCCc1ccc2[nH]c(NC(=O)OC)nc2c1 [Parbendazole] | UNC! Lots of worms in 1, not starved in 2
19 | CCCC(=O)O[C@@H]1[C@@H](C)[C@@]2(O)[C@@H](C=C(CO)C[C@]3(O)C(=O)C(C)=C[C@@H]23)[C@@H]2C(C)(C)[C@]12OC(=O)CCC [Phorbol 12, 13-dibutyrate] | SLOW only L1/2s (one gen. only), not starved
20 | CC(Cc1ccccc1)NCCC(c1ccccc1)c1ccccc1 (stereo not drawn) [Prenylamine Lactate] | few progeny, not starved stalls at late larval?
21 | C=C1C([C@]2(C)C(CC(=O)OC)[C@@](C)(COC(C)=O)OC(=O)C[C@@H]2OC(C)=O)[C@@H](OC=O)[C@H](OC(=O)C(OC(C)=O)C(C)CC)[C@@]2(C)[C@H](c3ccoc3)CC(=O)C12O (stereo partly drawn) [Prieuranin Acetate] | SLOW, barely 1 gen, ns; one well = only 1 worm
22 | C=C1[C@@H]([C@@]2(C)[C@@H](OC(C)=O)CC(=O)O[C@](C)(COC(C)=O)[C@@H]2C(=O)OC)[C@@H](OC=O)[C@H](OC(=O)[C@H](O)[C@H](C)CC)[C@@]2(C)[C@H](c3ccoc3)CC(=O)[C@]12O [Prieurianin] | SLOW! Only orig adults, one well = dead, ns
23 | O=C1c2ccc(O)c(O)c2C(=O)c2c(O)ccc(O)c21 [Quinalizarin] | SLOW, unc, ns
24 | CCN(CC)C(=O)NC1C=C2c3cccc4[nH]cc(c34)C[C@H]2N(C)C1.O=C(O)/C=C\C(=O)O (stereo partly drawn) [R(+)-Lisuride hydrogen maleate] | UNCish, starved but slow, lots of worms
25 | C=C(C)[C@H]1Cc2c(ccc3c2O[C@@H]2COc4cc(OC)c(OC)cc4[C@@H]2C3=O)O1 [Rotenone] | SLOW, only one gen., few, not starved
26 | CC(C)[C@@]1(O)[C@@H](OC(=O)c2ccc[nH]2)[C@@]2(O)[C@@]3(C)C[C@]4(O)O[C@@]5([C@H](O)[C@@H](C)CC[C@]35O)[C@@]2(O)[C@@]14C [Ryanodine] | UNC! 1: lots and starved, 2: few, not starved, less uncish
27 | COP(=O)(OC)C(O)C(Cl)(Cl)Cl (stereo not drawn) [Trichlorfon] | VERY unhappy, unc-ish, a few dpy/hypercontracted animals
28 | CC(C)(C)c1cc(/C=C(\C#N)C(N)=S)cc(C(C)(C)C)c1O [Tyrphostin AG 879] | SLOW! Only on 2nd gen, ns
29 | COc1ccccc1NC(=O)Nc1nc(-c2cccnc2)nc2ccccc12 [VUF 5574] | uncish adults, starved
30 | Avermectin B1 | adults DEAD
